Measured values taken from ChEMBL document CHEMBL1142599, “Biocatalytic and antimetastatic studies of the marine cembranoids sarcophine and 2-epi-16-deoxysarcophine” (J Nat Prod, 2006).

Organism: Mus musculus
Assay: Inhibition of mouse B16B15b cell migration after 16 hrs by wound-healing assay
Format: functional

SMILES	Activity
CC1=C2[C@@H](O)C/C(C)=C/CC[C@]3(C)O[C@H]3CC/C(C)=C/[C@H]2OC1	Dose-dependent effect
CC1=C2CC/C(C)=C/C[C@H](O)[C@]3(C)O[C@H]3CC/C(C)=C/[C@@H]2OC1=O	Dose-dependent effect
CC1=C2CC/C(C)=C/C[C@H](O)[C@]3(C)O[C@H]3CC/C(C)=C/[C@H]2OC1	Dose-dependent effect
C/C1=C\[C@H]2OC[C@@]3(C)O[C@@]23CC/C(C)=C/CC[C@]2(C)O[C@H]2CC1	Dose-dependent effect
CC1=C2CC/C(C)=C/CC[C@]3(C)O[C@H]3CC/C(C)=C/[C@H]2OC1	Dose-dependent effect
CC1=C2CC/C(C)=C/CC[C@]3(C)O[C@H]3CC/C(C)=C/[C@@H]2OC1=O	Dose-dependent effect
CC1=C2CC/C(C)=C/[C@@H](O)C[C@]3(C)O[C@H]3CC/C(C)=C/[C@H]2OC1	Dose-dependent effect
